From patent publication US6737383B1, “Herbicidal oxadiazolidines” (priority 1999, dated 2004)

Experiments:
sugar beet = assay: Test B pre/postemergence sugar beet; assay type: in vivo, Beta vulgaris
Summary of the method: (§1)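 Herbicidal effect was estimated by eye on a ten-point control scale after plants spent twelve to sixteen days in a greenhouse following soil or foliar treatment. Foliar sprays targeted plants at one to four leaves; all doses were formulated in a non-phytotoxic solvent with surfactant.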

smallflower flatsedge = assay: Test B flood test smallflower flatsedge; assay type: in vivo, Cyperus difformis
Summary of the method: (§2)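 Plants were grown to the 2-leaf stage before treatment with test chemical, then held in a greenhouse for twelve to sixteen days. Injury was visually rated against untreated controls on a 0–10 scale, where 0 is no effect and 10 is complete control.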

rice = assay: Test B flood test rice; assay type: in vivo, Oryza sativa
Summary of the method: as §2

soybean = assay: Test B pre/postemergence soybean; assay type: in vivo, Glycine max
Summary of the method: as §1

bedstraw = assay: Test B pre/postemergence bedstraw; assay type: in vivo, Galium aparine
Summary of the method: as §1

rape = assay: Test B pre/postemergence rape; assay type: in vivo, Brassica napus
Summary of the method: as §1

velvetleaf = assay: Test B pre/postemergence velvetleaf; assay type: in vivo, Abutilon theophrasti
Summary of the method: as §1

blackgrass = assay: Test B pre/postemergence blackgrass; assay type: in vivo, Alopecurus myosuroides
Summary of the method: as §1

surinam grass = assay: Test B pre/postemergence surinam grass; assay type: in vivo, Brachiaria decumbens
Summary of the method: as §1

giant foxtail = assay: Test B pre/postemergence giant foxtail; assay type: in vivo, Setaria faberii
Summary of the method: as §1

crabgrass = assay: Test B pre/postemergence crabgrass; assay type: in vivo, Digitaria sanguinalis
Summary of the method: as §1

purple nutsedge = assay: Test B pre/postemergence purple nutsedge; assay type: in vivo, Cyperus rotundus
Summary of the method: as §1

corn = assay: Test B pre/postemergence corn; assay type: in vivo, Zea mays
Summary of the method: as §1

duck salad = assay: Test B flood test duck salad; assay type: in vivo, Heteranthera limosa
Summary of the method: as §2

bamyardgrass = assay: Test B flood test barnyardgrass; assay type: in vivo, Echinochloa crus-galli
Summary of the method: as §2

wheat = assay: Test B pre/postemergence wheat; assay type: in vivo, Triticum aestivum
Summary of the method: as §1

cocklebur = assay: Test B pre/postemergence cocklebur; assay type: in vivo, Xanthium strumarium
Summary of the method: as §1

[1] = Postemergence, Rate 62 g/ha, scale 0 to 10, 0 is no effect, 10 is complete control
[2] = Postemergence, Rate 250 g/ha, scale 0 to 10, 0 no effect, 10 complete control
[3] = Preemergence, Rate 62 g/ha, scale 0 to 10 (0 no effect, 10 complete control)
[4] = Preemergence, Rate 125 g/ha, scale 0 to 10 (0 no effect, 10 complete control)
[5] = Preemergence, Rate 250 g/ha, scale of 0 to 10 where 0 is no effect and 10 is complete control
[6] = Preemergence, Rate 500 g/ha, scale 0 (no effect) to 10 (complete control)
[7] = Rate 500 g/ha, Postemergence, scale 0 to 10, 0 no effect, 10 complete control
[8] = Rate 125 g/ha, Postemergence section (flood test species), scale 0 to 10, 0 no effect, 10 complete control
[9] = Rate 500 g/ha, listed under Postemergence (flood test species), scale 0 to 10, 0 no effect, 10 complete control
[10] = flood test, listed under Postemergence, Rate 250 g/ha, scale 0 to 10, 0 no effect, 10 complete control
[11] = Rate 125 g/ha, Postemergence, scale 0 to 10, 0 no effect, 10 complete control

Compound: CC(C)N(C(=O)n1oc(=O)n(Cc2ccccc2)c1=O)c1ccc(F)cc1F [Compound 79]
- Sugarbeets plant response rating (sugar beet; [1]): 3
- Sugarbeets plant response rating (sugar beet; [2]): 4
- Sugarbeets plant response rating (sugar beet; [3]): 0
- Plant response rating, Sugarbeets (sugar beet; [4]): 1
- Plant response rating, Sugarbeets (sugar beet; [5]): 1
- Sugarbeets plant response rating (sugar beet; [6]): 2
- Sugarbeets plant response rating (sugar beet; [7]): 6
- S. Flatsedge plant response rating (smallflower flatsedge; [1]): 0
- S. Flatsedge plant response rating (smallflower flatsedge; [8]): 0
- S. Flatsedge plant response rating (smallflower flatsedge; [9]): 10
- S. Flatsedge plant response rating (smallflower flatsedge; [10]): 4
- Rice plant response rating (rice; [1]): 0
- Rice plant response rating (rice; [8]): 0
- Rice plant response rating (rice; [9]): 3
- Rice plant response rating (rice; [10]): 0
- Soybean plant response rating (soybean; [1]): 0
- Soybean plant response rating (soybean; [2]): 1
- Soybean plant response rating (soybean; [3]): 0
- Plant response rating, Soybean (soybean; [4]): 0
- Plant response rating, Soybean (soybean; [5]): 0
- Soybean plant response rating (soybean; [6]): 0
- Soybean plant response rating (soybean; [11]): 1
- Soybean plant response rating (soybean; [7]): 2
- Bedstraw plant response rating (bedstraw; [1]): 3
- Bedstraw plant response rating (bedstraw; [2]): 7
- Bedstraw plant response rating (bedstraw; [3]): 0
- Plant response rating, Bedstraw (bedstraw; [4]): 0
- Plant response rating, Bedstraw (bedstraw; [5]): 0
- Bedstraw plant response rating (bedstraw; [6]): 0
- Bedstraw plant response rating (bedstraw; [11]): 3
- Bedstraw plant response rating (bedstraw; [7]): 8
- Rape plant response rating (rape; [1]): 0
- Rape plant response rating (rape; [2]): 0
- Rape plant response rating (rape; [3]): 0
- Plant response rating, Rape (rape; [4]): 0
- Plant response rating, Rape (rape; [5]): 0
- Rape plant response rating (rape; [6]): 0
- Rape plant response rating (rape; [11]): 0
- Rape plant response rating (rape; [7]): 3
- Velvetleaf plant response rating (velvetleaf; [1]): 0
- Velvetleaf plant response rating (velvetleaf; [2]): 0
- Velvetleaf plant response rating (velvetleaf; [3]): 0
- Plant response rating, Velvetleaf (velvetleaf; [4]): 0
- Plant response rating, Velvetleaf (velvetleaf; [5]): 0
- Velvetleaf plant response rating (velvetleaf; [6]): 3
- Velvetleaf plant response rating (velvetleaf; [11]): 0
- Velvetleaf plant response rating (velvetleaf; [7]): 3
- Blackgrass plant response rating (blackgrass; [1]): 0
- Blackgrass plant response rating (blackgrass; [2]): 3
- Blackgrass plant response rating (blackgrass; [3]): 0
- Plant response rating, Blackgrass (blackgrass; [4]): 2
- Plant response rating, Blackgrass (blackgrass; [5]): 6
- Blackgrass plant response rating (blackgrass; [6]): 6
- Blackgrass plant response rating (blackgrass; [11]): 0
- Blackgrass plant response rating (blackgrass; [7]): 3
- B. signalgrass plant response rating (surinam grass; [1]): 0
- B. signalgrass plant response rating (surinam grass; [2]): 0
- B. signalgrass plant response rating (surinam grass; [3]): 2
- Plant response rating, B. signalgrass (surinam grass; [4]): 0
- Plant response rating, B. signalgrass (surinam grass; [5]): 3
- B. signalgrass plant response rating (surinam grass; [6]): 5
- B. signalgrass plant response rating (surinam grass; [11]): 0
- B. signalgrass plant response rating (surinam grass; Rate 500 g/ha, Postemergence, scale of 0 to 10 where 0 is no effect and 10 is complete control): 0
- Giant foxtail plant response rating (giant foxtail; [1]): 0
- Giant foxtail plant response rating (giant foxtail; [2]): 3
- Giant foxtail plant response rating (giant foxtail; [3]): 4
- Plant response rating, Giant foxtail (giant foxtail; [4]): 8
- Plant response rating, Giant foxtail (giant foxtail; [5]): 9
- Giant foxtail plant response rating (giant foxtail; [6]): 9
- Giant foxtail plant response rating (giant foxtail; [11]): 2
- Giant foxtail plant response rating (giant foxtail; [7]): 4
- Crabgrass plant response rating (crabgrass; [1]): 3
- Crabgrass plant response rating (crabgrass; [2]): 4
- Crabgrass plant response rating (crabgrass; [3]): 2
- Plant response rating, Crabgrass (crabgrass; [4]): 7
- Plant response rating, Crabgrass (crabgrass; [5]): 9
- Crabgrass plant response rating (crabgrass; [6]): 10
- Crabgrass plant response rating (crabgrass; [11]): 4
- Crabgrass plant response rating (crabgrass; [7]): 8
- Nutsedge plant response rating (purple nutsedge; [1]): 0
- Nutsedge plant response rating (purple nutsedge; [2]): 0
- Nutsedge plant response rating (purple nutsedge; [3]): 0
- Plant response rating, Nutsedge (purple nutsedge; [4]): 0
- Plant response rating, Nutsedge (purple nutsedge; [5]): 0
- Nutsedge plant response rating (purple nutsedge; [6]): 0
- Nutsedge plant response rating (purple nutsedge; [11]): 0
- Nutsedge plant response rating (purple nutsedge; [7]): 0
- Corn plant response rating (corn; [1]): 0
- Corn plant response rating (corn; [2]): 0
- Corn plant response rating (corn; [3]): 0
- Plant response rating, Corn (corn; [4]): 0
- Plant response rating, Corn (corn; [5]): 0
- Corn plant response rating (corn; [6]): 0
- Corn plant response rating (corn; [11]): 0
- Corn plant response rating (corn; [7]): 0
- Ducksalad plant response rating (duck salad; [1]): 0
- Ducksalad plant response rating (duck salad; [8]): 0
- Ducksalad plant response rating (duck salad; [9]): 3
- Ducksalad plant response rating (duck salad; [10]): 0
- Barnyardgrass plant response rating (bamyardgrass; [1]): 0
- Barnyardgrass plant response rating (bamyardgrass; [8]): 0
- Barnyardgrass plant response rating (bamyardgrass; [9]): 9
- Barnyardgrass plant response rating (bamyardgrass; [10]): 3
- Wheat plant response rating (wheat; [1]): 0
- Wheat plant response rating (wheat; [2]): 0
- Wheat plant response rating (wheat; [3]): 0
- Plant response rating, Wheat (wheat; [4]): 0
- Plant response rating, Wheat (wheat; [5]): 0
- Wheat plant response rating (wheat; [6]): 2
- Wheat plant response rating (wheat; [11]): 0
- Wheat plant response rating (wheat; [7]): 0
- Cocklebur plant response rating (cocklebur; [1]): 0
- Cocklebur plant response rating (cocklebur; [2]): 2
- Cocklebur plant response rating (cocklebur; [3]): 0
- Plant response rating, Cocklebur (cocklebur; [4]): 0
- Plant response rating, Cocklebur (cocklebur; [5]): 0
- Cocklebur plant response rating (cocklebur; [6]): 0
- Cocklebur plant response rating (cocklebur; [11]): 0
- Cocklebur plant response rating (cocklebur; [7]): 2
